IC50 data for 27 compounds are collected here from patent publication US8541407B2 (ArQule, Inc., priority 2010, dated 2013).

By IC50 is commonly meant the concentration that gives 50% inhibition.

Where a name gives a salt, the structure may show the parent alone.

In test [1] the target is AKT1 (Homo sapiens (Human), UniProt P31749). Nature of the test: Inactive Akt Alpha Screen Assay. Particulars: non *labeled: Akt Alpha Screen assay; read-out: AKT1 biochemical assay, IC50. The method, boiled down: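 AKT1 activated in situ by PDK1, MAPKAPK2, lipid vesicles and ATP, then phosphorylating biotinylated crosstide for 30 min at room temperature. Stopped with 10 mM EDTA; phosphopeptide detected by AlphaScreen using phospho-AKT substrate antibody (1:350), Protein A acceptor and streptavidin donor beads, 90 min dark, ex 640/em 570 nm.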
AKT1, sequence (P31749 whole entry): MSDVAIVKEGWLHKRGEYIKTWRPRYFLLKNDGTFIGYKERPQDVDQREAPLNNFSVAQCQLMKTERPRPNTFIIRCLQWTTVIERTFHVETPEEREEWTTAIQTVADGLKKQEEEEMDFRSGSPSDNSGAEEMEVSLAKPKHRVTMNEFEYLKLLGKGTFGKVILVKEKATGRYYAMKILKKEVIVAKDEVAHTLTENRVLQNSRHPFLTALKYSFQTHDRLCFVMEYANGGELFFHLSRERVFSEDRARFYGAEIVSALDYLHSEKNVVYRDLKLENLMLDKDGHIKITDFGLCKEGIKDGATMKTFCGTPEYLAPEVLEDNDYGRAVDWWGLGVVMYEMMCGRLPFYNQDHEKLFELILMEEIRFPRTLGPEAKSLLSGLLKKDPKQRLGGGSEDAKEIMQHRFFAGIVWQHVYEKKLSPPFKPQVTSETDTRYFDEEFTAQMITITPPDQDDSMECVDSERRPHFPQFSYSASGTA

Test [2] relates to AN3-CA. In words: MTS Assay, cell proliferation analysis (AN3-CA). The format is cell-based. Conditions: Homo sapiens; AN3-CA cells; 72 hours; 10 Percent FBS. The method, then: (§1) Cell proliferation analysis. Cell survival was determined by the MTS assay. Briefly, cells were plated in a 96-well plate at 2,000-10,000 cells per well, cultured for 24 hours in complete growth medium, and then treated with representative compounds of the invention or combinations thereof for 72 hours. MTS was added and incubated for 4 hours, followed by assessment of cell viability by using the microplate reader at 570 nm. Data were normalized to untreated controls and analyzed.

Test [3] concerns A2780. In words: MTS Assay, cell proliferation analysis (A2780). The format is cell-based. Conditions: Homo sapiens; A2780 cells; 72 hours; 10 Percent FBS. How it is done: as §1

Regarding `Cc1cccc(S(=O)(=O)NCc2ccc(-c3nnc4n3-c3cccnc3Nc3ccccc3-4)cc2)c1` [Example 115, N-(4-(9H-benzo[f]pyrido[2,3-b][1,2,4]triazolo[4,3-d][1,4]diazepin-3-yl)benzyl)-3-methylbenzenesulfonamide], the half-maximal inhibitory concentration (IC50) came out at 0.11 µM in test [1], 28 µM in test [2] and 16 µM in test [3].
The like results for `O=C(NCc1ccc(-c2nnc3n2-c2cccnc2Nc2ccccc2-3)cc1)Nc1ccccc1F` [Example 121, 1-(4-(9H-benzo[f]pyrido[2,3-b][1,2,4]triazolo[4,3-d][1,4]diazepin-3-yl)benzyl)-3-(2-fluorophenyl)urea] were, in that order, 0.31 µM, 27 µM and 16 µM.
The like results for `COc1cccc(NC(=O)NCc2ccc(-c3nnc4n3-c3cccnc3Nc3ccccc3-4)cc2)c1` [Example 123, 1-(4-(9H-benzo[f]pyrido[2,3-b][1,2,4]triazolo[4,3-d][1,4]diazepin-3-yl)benzyl)-3-(3-methoxyphenyl)urea] were, in that order, 0.13 µM, 48 µM and 27 µM.
The like results for `O=C(Nc1cccc(C(F)(F)F)c1)NC1CCN(Cc2ccc(-c3nnc4n3-c3cccnc3Nc3ccccc3-4)cc2)CC1` [Example 174, 1-(1-(4-(9H-benzo[f]pyrido[2,3-b][1,2,4]triazolo[4,3-d][1,4]diazepin-3-yl)benzyl)piperidin-4-yl)-3-(3-(trifluoromethyl)phenyl)urea] were, in that order, 0.63 µM, 13 µM and 8 µM.
Regarding `O=S(=O)(NC1(c2ccc(-c3nnc4n3-c3cccnc3Nc3ccccc3-4)cc2)CCC1)c1ccccc1` [Example 195, N-(1-(4-(9H-benzo[f]pyrido[2,3-b][1,2,4]triazolo[4,3-d][1,4]diazepin-3-yl)phenyl)cyclobutyl)benzenesulfonamide], the IC50 in test [1] came out at 0.28 µM; in test [2], 16 µM; in test [3], 11 µM.
The like results for `Cc1ccc(S(=O)(=O)NCc2ccc(-c3nnc4n3-c3cccnc3Nc3ccccc3-4)cc2)cc1` [Example 118, N-(4-(9H-benzo[f]pyrido[2,3-b][1,2,4]triazolo[4,3-d][1,4]diazepin-3-yl)benzyl)-4-methylbenzenesulfonamide] were, in that order, 0.11 µM, 28 µM and 14 µM.
On the same counts, the results for `Cc1ccc(S(=O)(=O)NC2(c3ccc(-c4nnc5n4-c4cccnc4Nc4ccccc4-5)cc3)CCC2)cc1` [Example 198, N-(1-(4-(9H-benzo[f]pyrido[2,3-b][1,2,4]triazolo[4,3-d][1,4]diazepin-3-yl)phenyl)cyclobutyl)-4-methylbenzenesulfonamide] are 0.34 µM, 17 µM and 12 µM.
The like results for `O=S(=O)(NC1CCN(Cc2ccc(-c3nnc4n3-c3cccnc3Nc3ccccc3-4)cc2)CC1)c1ccc2c(c1)OCCO2` [Example 156, N-(1-(4-(9H-benzo[f]pyrido[2,3-b][1,2,4]triazolo[4,3-d][1,4]diazepin-3-yl)benzyl)piperidin-4-yl)-2,3-dihydrobenzo[b][1,4]dioxine-6-sulfonamide] were, in that order, 2 µM, 20 µM and 15 µM.
Turning to `Clc1ccc2nc(CCNCc3ccc(-c4nnc5n4-c4cccnc4Nc4ccccc4-5)cc3)[nH]c2c1` [Example 203, N-(4-(9H-benzo[f]pyrido[2,3-b][1,2,4]triazolo[4,3-d][1,4]diazepin-3-yl)benzyl)-2-(6-chloro-1H-benzo[d]imidazol-2-yl)ethanamine], the values for the half-inhibitory concentration (IC50) in test [1], in test [2] and in test [3] were 0.15 µM, 13 µM and 10 µM, respectively.
On the same counts, the results for `Fc1ccc2c(CCNCc3ccc(-c4nnc5n4-c4cccnc4Nc4ccccc4-5)cc3)c[nH]c2c1` [Example 202, N-(4-(9H-benzo[f]pyrido[2,3-b][1,2,4]triazolo[4,3-d][1,4]diazepin-3-yl)benzyl)-2-(6-fluoro-1H-indol-3-yl)ethanamine] are 0.21 µM, 15 µM and 4 µM.
The like results for `O=C(NCCc1ccc(-c2nnc3n2-c2cccnc2Nc2ccccc2-3)cc1)Nc1ccccc1` [Example 110, 1-(4-(9H-benzo[f]pyrido[2,3-b][1,2,4]triazolo[4,3-d][1,4]diazepin-3-yl)phenethyl)-3-phenylurea] were, in that order, 0.12 µM, 8 µM and 6 µM.
For `N#CC1(c2ccccc2)CCN(Cc2ccc(-c3nnc4n3-c3cccnc3Nc3ccccc3-4)cc2)CC1` [Example 163, 1-(4-(9H-benzo[f]pyrido[2,3-b][1,2,4]triazolo[4,3-d][1,4]diazepin-3-yl)benzyl)-4-phenylpiperidine-4-carbonitrile], in test [1], the IC50 is 7.3 µM.
The same measure, in the same setting: under `O=C(Cc1ccccc1)Nc1ccc(-c2nnc3n2-c2cccnc2Nc2ccccc2-3)cc1` [Example 49, N-(4-(9H-benzo[f]pyrido[2,3-b][1,2,4]triazolo[4,3-d][1,4]diazepin-3-yl)phenyl)-2-phenylacetamide] stands 0.24 µM; under `Cc1ccc(C(=O)N2CCN(Cc3ccc(-c4nnc5n4-c4cccnc4Nc4ccccc4-5)cc3)CC2)cc1` [Example 160, (4-(4-(9H-benzo[f]pyrido[2,3-b][1,2,4]triazolo[4,3-d][1,4]diazepin-3-yl)benzyl)piperazin-1-yl)(p-tolyl)methanone], 3 µM.
Same read-out and setting: under `Cc1cc(C(=O)NC2(c3ccc(-c4nnc5n4-c4cccnc4Nc4ccccc4-5)cc3)CCC2)no1` [Example 206, N-(1-(4-(9H-benzo[f]pyrido[2,3-b][1,2,4]triazolo[4,3-d][1,4]diazepin-3-yl)phenyl)cyclobutyl)-5-methylisoxazole-3-carboxamide] stands 0.24 µM; under `O=C(NC1(c2ccc(-c3nnc4n3-c3cccnc3Nc3ccccc3-4)cc2)CCC1)c1ccc(F)cc1` [Example 200, N-(1-(4-(9H-benzo[f]pyrido[2,3-b][1,2,4]triazolo[4,3-d][1,4]diazepin-3-yl)phenyl)cyclobutyl)-4-fluorobenzamide], 0.61 µM; under `CN(C)c1ccc(-c2nnc3n2-c2ccccc2Nc2ccccc2-3)cc1` [Example 21, 4-(9H-dibenzo[b,f][1,2,4]triazolo[4,3-d][1,4]diazepin-3-yl)-N,N-dimethylaniline], 3.5 µM.
The same measure, in the same setting: to `COc1ccc(CCNC(=O)NC2CCN(Cc3ccc(-c4nnc5n4-c4cccnc4Nc4ccccc4-5)cc3)CC2)cc1OC` [Example 169, 1-(1-(4-(9H-benzo[f]pyrido[2,3-b][1,2,4]triazolo[4,3-d][1,4]diazepin-3-yl)benzyl)piperidin-4-yl)-3-(3,4-dimethoxyphenethyl)urea] belongs 6 µM.
In the case of `O=C(NCc1ccc(-c2nnc3n2-c2cccnc2Nc2ccccc2-3)cc1)Nc1cccc(F)c1` [Example 122, 1-(4-(9H-benzo[f]pyrido[2,3-b][1,2,4]triazolo[4,3-d][1,4]diazepin-3-yl)benzyl)-3-(3-fluorophenyl)urea], in test [1], the concentration for half-maximal inhibition (IC50) worked out at 1.1 µM.
Same read-out and setting: to `O=C(NCc1ccc(-c2nnc3n2-c2cccnc2Nc2ccccc2-3)cc1)Nc1ccc(F)cc1` [Example 124, 1-(4-(9H-benzo[f]pyrido[2,3-b][1,2,4]triazolo[4,3-d][1,4]diazepin-3-yl)benzyl)-3-(4-fluorophenyl)urea] belongs 1.2 µM.
Still for that read-out and setting: under `Fc1ccc(-c2nnc3n2-c2cccnc2Nc2ccccc2-3)cc1` [hydrochloride] stands 23 µM; under `O=C(Nc1ccc(-c2nnc3n2-c2cccnc2Nc2ccccc2-3)cc1)c1cccnc1` [Example 40, N-(4-(9H-benzo[f]pyrido[2,3-b][1,2,4]triazolo[4,3-d][1,4]diazepin-3-yl)phenyl)nicotinamide], 0.26 µM.
The same measure, in the same setting: under `Cc1ccc2c(c1)Nc1ncccc1-n1c(-c3ccc(C4(N)CCC4)cc3)nnc1-2` [Example 223, 1-(4-(11-methyl-9H-benzo[f]pyrido[2,3-b][1,2,4]triazolo[4,3-d][1,4]diazepin-3-yl)phenyl)cyclobutanamine] stands 0.49 µM; under `c1ccc2c(c1)Nc1ncccc1-n1c(-c3ccc(CN4CCC(c5nnc(-c6ccncc6)[nH]5)CC4)cc3)nnc1-2` [Example 131, 3-(4-((4-(5-(pyridin-4-yl)-4H-1,2,4-triazol-3-yl)piperidin-1-yl)methyl)phenyl)-9H-benzo[f]pyrido[2,3-b][1,2,4]triazolo[4,3-d][1,4]diazepine], 0.17 µM; under `CCCN(C)Cc1ccc(-c2nnc3n2-c2cccnc2Nc2ccccc2-3)cc1` [Example 90, N-(4-(9H-benzo[f]pyrido[2,3-b][1,2,4]triazolo[4,3-d][1,4]diazepin-3-yl)benzyl)-N-methylpropan-1-amine], 2.5 µM.
Regarding `CC(C)(C)CC(=O)Nc1ccc(-c2nnc3n2-c2cccnc2Nc2ccccc2-3)cc1` [Example 36, N-(4-(9H-benzo[f]pyrido[2,3-b][1,2,4]triazolo[4,3-d][1,4]diazepin-3-yl)phenyl)-3,3-dimethylbutanamide], the IC50 in test [1] is 0.34 µM.
Regarding `OCc1ccc(-c2nnc3n2-c2cccnc2Nc2ccccc2-3)cc1` [Example 23, (4-(9H-benzo[f]pyrido[2,3-b][1,2,4]triazolo[4,3-d][1,4]diazepin-3-yl)phenyl)methanol], the half-maximal inhibitory concentration (IC50) in test [1] stood at 1 µM.
